Patent US9481659B2, “Selective heterocyclic sphingosine 1 phosphate receptor modulators” (Celgene International II SÀRL, priority 2011, dated 2016)
Where two headings read alike, the source gives them in different places.

Key:
[1] = target: T1, S1P5 (Homo sapiens, UniProt Q9H228); assay: Specificity over other S1P receptors: S1P5-bla TANGO U2OS; assay type: cell-based; conditions: without Forskolin, read-out: S1P5 agonist value (EC50)
T1 construct: Tango fusion: TEV protease site plus GAL4-VP16 transcription factor (own knowledge of the Tango format); host or cells: U2OS (bla TANGO)
T1 sequence (Q9H228 whole entry, the tested form may be a part): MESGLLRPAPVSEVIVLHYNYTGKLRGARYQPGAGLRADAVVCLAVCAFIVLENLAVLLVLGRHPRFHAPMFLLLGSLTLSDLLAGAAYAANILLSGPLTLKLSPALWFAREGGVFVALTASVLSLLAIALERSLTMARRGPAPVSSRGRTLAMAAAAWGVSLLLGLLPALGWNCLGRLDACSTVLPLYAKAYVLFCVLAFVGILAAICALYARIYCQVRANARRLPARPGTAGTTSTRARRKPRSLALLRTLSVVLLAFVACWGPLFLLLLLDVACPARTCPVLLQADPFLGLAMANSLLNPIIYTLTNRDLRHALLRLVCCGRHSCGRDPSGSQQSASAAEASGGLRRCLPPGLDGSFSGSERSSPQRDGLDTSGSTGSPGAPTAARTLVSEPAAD
Protocol: (§1) Cells were seeded into 384-well black wall/clear bottom plates at 10^4 cells/well/19.5 μl assay media (DMEM-phenol free, 0.5% charcoal/dextran stripped serum, 2 mM glutamine, 0.1 mM NEAA, 1 mM Na-Pyruvate, 25 mM Hepes) and incubated for 18 hrs at 37° C. in 5% CO2. Dose response curves (10-point) were generated in 10 mM Hepes, 0.1% Pluronic F127, in the presence of Forskolin. Cells were treated with 0.5 μl compound in the presence of 2 μM Forskolin for 4 hrs at 37° C. The FRET-based β-lactamase fluorescent substrate (LiveBLAzer™-FRET B/G Loading Kit CC4-AM; Invitrogen) was prepared according to manufacturer's directions, and incubated with cells for 2 hrs at room temperature.
(§2) To assess compound specificity on other […] receptors the following cell lines were used: S1P2 CRE-bla CHOK1, S1P3-Gα15 NFAT-bla HEK293T (Invitrogen), S1P4-bla TANGO U2OS (Invitrogen), S1P5-bla TANGO U2OS (Invitrogen). The same assay set up for S1P1 was used but without Forskolin. S1P4 and S1P5 assays were performed in FreeStyle Expression medium (Invitrogen). S1P5 cells were incubated for 48 hrs in prior to treatment with compound.

[2] = target: S1P1/EDG1 (Homo sapiens, UniProt P21453); assay: S1P1 CRE-bla CHOK1 reporter assay, inhibition of Forskolin induced cAMP; assay type: cell-based; conditions: S1P1 CRE-bla CHOK1 cells, 2 μM Forskolin
S1P1/EDG1, sequence (P21453 whole entry): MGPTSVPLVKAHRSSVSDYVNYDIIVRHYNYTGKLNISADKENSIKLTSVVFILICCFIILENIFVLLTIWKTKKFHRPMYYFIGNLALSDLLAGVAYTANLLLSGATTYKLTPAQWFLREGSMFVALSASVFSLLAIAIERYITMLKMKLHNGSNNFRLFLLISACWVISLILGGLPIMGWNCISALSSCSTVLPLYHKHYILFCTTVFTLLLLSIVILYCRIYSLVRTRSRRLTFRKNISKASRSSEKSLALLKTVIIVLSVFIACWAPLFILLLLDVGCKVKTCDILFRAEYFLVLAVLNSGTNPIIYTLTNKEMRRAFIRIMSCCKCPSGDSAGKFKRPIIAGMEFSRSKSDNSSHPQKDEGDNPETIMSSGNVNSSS
Procedure, shortened: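 CRE-bla CHO K1 cells stably expressing human S1P1 were treated 4 hrs at 37° C with 10-point compound dilutions plus 2 μM Forskolin. Inhibition of cAMP-driven β-lactamase reporter was read with a FRET substrate loaded 2 hrs at room temperature.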

[3] = tested on: CD4 or CD8 positive T cells; assay: Lymphopenia in rats; assay type: in vivo; conditions: for inhibition in vivo at 0.2 mg/kg: po, rat, 24 h after a 0.2 mg/kg single dose; for ED50: read-out: ED50 (estimated dose needed to produce 50% lymphopenia), rat, at 24 h after a 3-5 day dosing regimen
Protocol: In rats: Female rats (Simonsen Laboratories, Gilroy Calif.) were housed in an ALAAC accredited facility and the research was approved by the facilities Institutional Animal Care and Use Committee (IACUC). The animals were acclimated to the laboratory for at least 5 days prior to initiation of experiments. Rats (n=3/compound/time-point) were dosed by oral gavage with 1 mg/kg compound formulated in a vehicle consisting of 5% DMSO/5% Tween 20 and 90% 0.1N HCL. Control rats were dosed PO with the vehicle. Whole blood was collected from isoflurane anesthetized rats via the retro-orbital sinus and terminal samples were collected by cardiac puncture into EDTA. Whole blood was incubated with mouse anti-rat CD32 (BD #550271), PE-mouse anti-rat CD45R/B220 (BD #554881), PECy5-mouse anti-rat CD4 (BD #554839), and APC-mouse anti-rat CD8a (eBioscience #17-0084) for 30 minutes on ice. Red blood cells were lysed using BD Pharm Lyse Lysing buffer (#555899) and white blood cells were analyzed with a BD FACSArray. Lymphopenia was expressed as the % of white blood cells that were CD4 or CD8 positive T cells. The overall lymphopenia response over 24 h was estimated by calculating the area under the effect curve (AUEC) using the linear trapezoidal rule. In some experiments, total lymphocyte counts were determined using a standard impedance based veterinary hematology analyzer (IDEXX Preclinical Research Services, Sacramento, Calif.).
The percentage of lymphopenia at 24 h after a 0.2 mg/kg single dose regiment is reported. […] N/A is not available.

[4] = target: T2, S1P4 (Homo sapiens, UniProt O95977); assay: Specificity over other S1P receptors: S1P4-bla TANGO U2OS; assay type: cell-based; conditions: without Forskolin, read-out: S1P4 agonist value (EC50)
T2 construct: Tango fusion: TEV protease site plus GAL4-VP16 transcription factor (own knowledge of the Tango format); host or cells: U2OS (bla TANGO)
T2 sequence (O95977 1-384): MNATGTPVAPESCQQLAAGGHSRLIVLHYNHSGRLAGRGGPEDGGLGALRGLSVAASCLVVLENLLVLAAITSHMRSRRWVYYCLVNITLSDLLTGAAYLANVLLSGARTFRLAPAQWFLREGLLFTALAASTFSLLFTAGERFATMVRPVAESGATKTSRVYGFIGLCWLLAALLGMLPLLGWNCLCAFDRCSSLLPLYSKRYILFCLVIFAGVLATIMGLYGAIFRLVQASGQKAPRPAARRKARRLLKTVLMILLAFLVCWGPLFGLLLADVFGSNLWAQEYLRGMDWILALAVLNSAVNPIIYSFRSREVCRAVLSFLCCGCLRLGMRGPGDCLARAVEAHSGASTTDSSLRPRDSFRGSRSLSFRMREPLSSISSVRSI
Protocol: as §1, §2

[5] = target: T3, S1P3 (Homo sapiens, UniProt Q99500); assay: Specificity over other S1P receptors: S1P3-Gα15 NFAT-bla HEK293T; assay type: cell-based; conditions: without Forskolin, read-out: S1P3 agonist value (EC50)
T3 construct: host or cells: NFAT-bla HEK293T
T3 sequence (Q99500 whole entry): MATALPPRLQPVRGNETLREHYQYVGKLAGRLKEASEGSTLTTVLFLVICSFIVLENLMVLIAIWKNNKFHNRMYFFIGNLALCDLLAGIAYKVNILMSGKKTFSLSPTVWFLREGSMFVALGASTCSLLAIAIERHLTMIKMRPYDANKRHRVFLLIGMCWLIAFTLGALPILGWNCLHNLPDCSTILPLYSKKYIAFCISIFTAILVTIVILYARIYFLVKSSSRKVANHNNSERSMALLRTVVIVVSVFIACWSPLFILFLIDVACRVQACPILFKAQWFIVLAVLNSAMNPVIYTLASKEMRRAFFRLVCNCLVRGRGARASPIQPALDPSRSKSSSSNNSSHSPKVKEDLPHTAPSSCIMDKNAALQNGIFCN
Protocol: as §1, with “temperature. Plates were read at Ex:410/Em:458 and Ex:410/Em:522, and the response ratio determined Data was analyzed by non-linear regression to determine the EC50 for inhibition of Forskolin induced cAMP.” for “temperature.”
as §2

[6] = target: T4, S1P2 (Homo sapiens, UniProt O95136); assay: Specificity over other S1P receptors: S1P2 CRE-bla CHOK1; assay type: cell-based; conditions: S1P2 CRE-bla CHOK1, without Forskolin; read-out: S1P2 agonist value (EC50)
T4 construct: expressed in transfected cells; host or cells: CRE-bla CHOK1
T4 sequence (O95136 whole entry, species assumed): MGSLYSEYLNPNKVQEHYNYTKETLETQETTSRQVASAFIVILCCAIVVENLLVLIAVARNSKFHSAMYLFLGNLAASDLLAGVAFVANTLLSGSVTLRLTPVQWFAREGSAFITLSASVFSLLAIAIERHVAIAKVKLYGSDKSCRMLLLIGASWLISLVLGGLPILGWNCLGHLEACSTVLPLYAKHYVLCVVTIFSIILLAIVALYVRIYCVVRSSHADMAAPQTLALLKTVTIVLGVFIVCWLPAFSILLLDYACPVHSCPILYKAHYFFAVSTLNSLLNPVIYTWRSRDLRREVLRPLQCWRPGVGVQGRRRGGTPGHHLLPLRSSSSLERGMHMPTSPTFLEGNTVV
Protocol: as §1, with “temperature. Plates were read at Ex:410/Em:458 and Ex:410/Em:522, and the response ratio determined Data was analyzed by non-linear regression to determine the EC50 for inhibition of Forskolin induced cAMP.” for “temperature.”
as §2

[7] = read-out: S1P1 agonist value (EC50)
[8] = agonist activity range, read-out: S1P1 ACTIVITY

Structure (SMILES): CC(C)Oc1ccc(-c2nnc(-c3cccc4c3CC[C@H]4NC(=O)N3CC[C@@H](N(C)C)C3)s2)cc1C#N [Compound 56, (R)—N—((R)-4-(5-(3-cyano-4-isopropoxyphenyl)-1,3,4-thiadiazol-2-yl)-2,3-dihydro-1H-inden-1-yl)-3-(dimethylamino)pyrrolidine-1-carboxamide]
- EC50 [1]: 139 nM
- EC50 [2, 7]: 0.32 nM
- EC50 [2, 8]: 0.05 to 0.5 nM
- inhibition in vivo at 0.2 mg/kg [3]: 52%
- EC50 [4]: > 10000 nM
- EC50 [5]: > 10000 nM
- EC50 [6]: > 10000 nM

Structure (SMILES): CC(C)Oc1ccc(-c2ncc(-c3cccc4c3CC[C@H]4NS(N)(=O)=O)s2)cc1C#N [Compound 166, (R)—N-(4-(2-(3-cyano-4-isopropoxyphenyl)thiazol-5-yl)-2,3-dihydro-1H-inden-1-yl)sulfamide]
- EC50 [1]: 64 nM
- EC50 [2, 7]: 0.14 nM
- EC50 [2, 8]: 0.05 to 0.5 nM
- inhibition in vivo at 0.2 mg/kg [3]: 47%
- ED50 [3]: 0.07 mg/kg
- EC50 [4]: 743 nM
- EC50 [5]: > 10000 nM
- EC50 [6]: 8450 nM

Structure (SMILES): CC(C)Oc1ccc(-c2ncc(-c3cccc4c3CC[C@H]4NC(=O)N3CCOCC3)s2)cc1C#N [Compound 186, (R)—N-(4-(2-(3-cyano-4-isopropoxyphenyl)thiazol-5-yl)-2,3-dihydro-1H-inden-1-yl)morpholine-4-carboxamide]
- EC50 [2, 8]: 0.05 to 0.5 nM
- EC50 [4]: > 10000 nM
- EC50 [6]: > 10000 nM

Structure (SMILES): CC(C)Oc1ccc(-c2nnc(-c3cccc4c3CC[C@H]4NC(=O)N3CCOCC3)s2)cc1C#N [Compound 58, (R)—N-(4-(5-(3-cyano-4-isopropoxyphenyl)-1,3,4-thiadiazol-2-yl)-2,3-dihydro-1H-inden-1-yl)morpholine-4-carboxamide]
- EC50 [2, 8]: 0.05 to 0.5 nM
- EC50 [4]: > 10000 nM
- EC50 [6]: > 10000 nM

Structure (SMILES): CC(C)Oc1ccc(-c2nnc(-c3cccc4c3CCC4NS(=O)(=O)CCO)s2)cc1C#N (stereo in doubt) [Compound 46, (R)—N-(4-(5-(3-cyano-4-isopropoxyphenyl)-1,3,4-thiadiazol-2-yl)-2,3-dihydro-1H-inden-1-yl)-2-hydroxyethanesulfonamide]
- inhibition in vivo at 0.2 mg/kg [3]: 39%
- EC50 [5]: > 10000 nM
- EC50 [6]: > 10000 nM

Structure (SMILES): CC(C)Oc1ccc(-c2ncc(-c3cccc4c3CC[C@H]4NC(=O)N3CCCC3)s2)cc1C#N [Compound 172, (R)—N-(4-(2-(3-cyano-4-isopropoxyphenyl)thiazol-5-yl)-2,3-dihydro-1H-inden-1-yl)pyrrolidine-1-carboxamide]
- EC50 [1]: 203 nM
- EC50 [2, 7]: 0.19 nM
- EC50 [2, 8]: 0.05 to 0.5 nM
- inhibition in vivo at 0.2 mg/kg [3]: 22%
- ED50 [3]: 0.2 mg/kg
- EC50 [4]: > 10000 nM
- EC50 [5]: > 10000 nM
- EC50 [6]: > 10000 nM

Structure (SMILES): CC(C)Oc1ccc(-c2nnc(-c3cccc4c3CCC4NS(=O)(=O)CC(=O)N(C)C)s2)cc1C#N (stereo in doubt) [Compound 43, (R)-2-(N-(4-(5-(3-cyano-4-isopropoxyphenyl)-1,3,4-thiadiazol-2-yl)-2,3-dihydro-1H-inden-1-yl)sulfamoyl)-N,N-dimethylacetamide]
- inhibition in vivo at 0.2 mg/kg [3]: 40%
- EC50 [4]: > 10000 nM
- EC50 [5]: > 10000 nM
- EC50 [6]: > 10000 nM
